One data set relates to Zein. Particulars: normalized to SLS as 100%; Stepan Chemical company literature; cited from earlier work.
The subject of data set [1] is Zein corn protein. Kind of data set: Zein test (Zein score, skin irritation potential). Particulars: 1 wt % active surfactant solution.
Text: (§1) Zein score can be measured using a Zein test (Gott, E., Aesthet. Medzin., Tenside 15: 313 (1966)), although other methodologies are known in the art. The Zein test determines the extent of denaturation of Zein corn protein after exposure to a surfactant for a given period of time. The higher the Zein score, the greater the skin irritation potential.
(§2) Zein scores for formulations (or detergent products) described herein refer to Zein scores obtained when a 10% dilution of a given formulation (or detergent product) is tested. Zein scores for individual surfactants refer to Zein scores obtained from testing 1% active surfactant solutions.
(§3) The “test surfactant solution” can be a solution with 1 wt % active surfactant when a surfactant is tested by itself Alternatively, the test surfactant solution can be a 10 wt % dilution of a formulation or product described herein. […] An aliquot (3.0 mL) was accurately measured and removed and set aside in a closed container as a blank solution. […] If all of the Zein protein was dissolved, 1 gram of additional Zein protein was added so that some solid remained undissolved. The mixture was stirred for one hour at room temperature. Undissolved Zein was then removed by filtration to obtain a filtrate solution. A 3.0 ml aliquot of the filtrate solution was accurately measured and placed in a tared aluminum pan and dried in an oven at 70° C. The percent of solids was calculated. Likewise, the blank solution was dried at 70° C. and the solids content of this 3 mL aliquot was determined. The solid weight in the blank solution was subtracted from the solid weight in the filtration solution and the quantity of dissolved Zein in the filtration solution was calculated by difference and reported as g Zein/100 g surfactant solution (also called “% Zein” or “Zein score”).
(§4) As a control, a Zein score was also measured for the Commercial Comparator using a 10% dilution.
The test system of data set [2] is Zein corn protein.
Text: as §1, §2, §3, §4

Like-named read-outs stand apart in the source and are kept apart here.

For the compound `CCCCCCCCCCC(C(=O)OC)S(=O)(=O)O.[Na]` (centres unmarked) [MES, Sodium methyl 2-sulfolaurate], the “Normalized Zein Score of Surfactant” value in the data set on Zein was 68%. For `CCCCCCCCCCCCOS(=O)(=O)[O-].[Na+]` [Sodium lauryl sulfate (SLS), Sodium lauryl sulfate], the “% Zein (g/100 g surfactant solution)” value with Zein corn protein [1] was 2.70 g/100 g surfactant solution. Regarding “Cocoamidopropyl betaine [Cocoamidopropyl betaine (CAPB)]”, the “% Zein (g/100 g surfactant solution)” value with Zein corn protein [2] is 0.56 g/100 g surfactant solution. For the same compound, the “Normalized Zein Score of Surfactant” value in the data set on Zein was 30%. Turning to “Disodium Laureth Sulfosuccinate [STEPAN-MILD SL3-BA]”, the “Normalized Zein Score of Surfactant” value in the data set with Zein is listed as 44%.

Turning to “Methyl ester sulfonate C16-C18 [Methyl ester sulfonate C16-C18 (MES)]”, the “% Zein (g/100 g surfactant solution)” value with Zein corn protein [2] is 1.55 g/100 g surfactant solution. As for “Sodium C14-16 Olefin Sulfonate (AOS) [BIO-TERGE AS-40]”, in the data set with Zein, the “Normalized Zein Score of Surfactant” value is listed as 75%. Regarding “Sodium Methyl Cocoyl Taurate [Pureact WS Conc.]”, the “Normalized Zein Score of Surfactant” value in the data set with Zein was 45%.

The values are drawn from patent US20170044471A1, “Sulfate-Free Liquid Laundry Detergent” (The Sun Products Corporation, priority 2015, published 2017).
